Results from US20020082241A1, “Adenosine as antithrombotic” (priority 2000, published 2002).

How the values were obtained:
[1] = acute toxicity in adult rats, single intravenous dose; format: in vivo; settings: rat, single i.v. dose, up to approximately 70 mg/kg (69.55±5.65 mg/kg), necropsy Day 8
Procedure: The potential acute toxicity of the compound in adult rats when administered intravenously as a single dose was examined. Twenty animals were divided into five treatment groups of two males and two females each as follows: Group 1: vehicle control; Group 2: 1 mg of the compound/kg body weight of animal; Group 3: 10 mg of the compound/kg body weight of animal; Group 4: 50 mg of the compound/kg body weight of animal; and Group 5: 100 mg of the compound/kg body weight of animal. The tested article was reconstituted with 0.9% sodium chloride injection to provide 0.64±0.05 mg/kg (Group 2), 6.89±1.13 mg/kg (Group 3), 35.02±5.02 mg/kg (Group 4) and 69.55±5.65 mg/kg (Group 5). Animals were dosed on Day 1, and scheduled necropsies conducted on Day 8 included gross examination of organs and tissues, organ weight measurements, and tissue collection for potential histopathological examination. It was found in the compound treatment groups that there was no change in clinical observations, serum chemistry, hematology, gross examination, body weight and organ weight (absolute and relative) that could be attributed to the compound.

[2] = tested on: thrombus formation in mesenteric vein; assay: thrombus formation in vivo in mesenteric vein of rats (electrical stimulation); settings: rat
Procedure: The thrombus formation in vivo in mesenteric vein of rats was used for evaluating an effect of the compound on the inhibition of venous thrombosis. In brief, groups of 3 male Wistar-derived rats, each weighing 60±10 gm, were used for each dosage test. The rats were anesthetized with phenobarbital sodium (50 mg/kg, i.p.), and paralyzed with succinylcholine chloride (2 mg/rat, i.p.). A mesenteric loop and vein was then exposed and mounted on a constructed platform. The exposed area was superfused with a normal saline at 37° C. except during electrode placement and stimulation. With the aid of a dissecting microscope and micromanipulator, a monopolar platinum electrode was brought into and contact with the vein. […] The relative venous occlusion (a measured degree of thrombus formation) was determined as a percentage of venous diameter (0.36 to 0.3 8 mm) and was recorded at 10 seconds (baseline control score) and at 1 minute interval for 20 minutes. […] In the vehicle-treated animals, the 20-minute interval recorded values were averaged, which attains a value ranging from 45 to 55% of the interval vein diameter. Consequently, the antithrombic activity of the compound was calculated as % of inhibition relative to the vehicle-treated control animals. […]

[3] = biological target: T1, platelet membrane receptor protein gpIIb/IIIa (Homo sapiens, UniProt P05106+P08514); assay: gpIIb/IIIa binding assay with compound spotted on plate and labeled gpIIb/IIIa; settings: concentration of the compound below 10 μg/ml; serial dilution 0 to 50 μg/ml; FIG. 5
T1 construct: platelet membrane receptor protein gpIIb/IIIa was purified from platelets; from tissue; host or cells: platelets
T1 sequence (P08514 32-887 limits assumed): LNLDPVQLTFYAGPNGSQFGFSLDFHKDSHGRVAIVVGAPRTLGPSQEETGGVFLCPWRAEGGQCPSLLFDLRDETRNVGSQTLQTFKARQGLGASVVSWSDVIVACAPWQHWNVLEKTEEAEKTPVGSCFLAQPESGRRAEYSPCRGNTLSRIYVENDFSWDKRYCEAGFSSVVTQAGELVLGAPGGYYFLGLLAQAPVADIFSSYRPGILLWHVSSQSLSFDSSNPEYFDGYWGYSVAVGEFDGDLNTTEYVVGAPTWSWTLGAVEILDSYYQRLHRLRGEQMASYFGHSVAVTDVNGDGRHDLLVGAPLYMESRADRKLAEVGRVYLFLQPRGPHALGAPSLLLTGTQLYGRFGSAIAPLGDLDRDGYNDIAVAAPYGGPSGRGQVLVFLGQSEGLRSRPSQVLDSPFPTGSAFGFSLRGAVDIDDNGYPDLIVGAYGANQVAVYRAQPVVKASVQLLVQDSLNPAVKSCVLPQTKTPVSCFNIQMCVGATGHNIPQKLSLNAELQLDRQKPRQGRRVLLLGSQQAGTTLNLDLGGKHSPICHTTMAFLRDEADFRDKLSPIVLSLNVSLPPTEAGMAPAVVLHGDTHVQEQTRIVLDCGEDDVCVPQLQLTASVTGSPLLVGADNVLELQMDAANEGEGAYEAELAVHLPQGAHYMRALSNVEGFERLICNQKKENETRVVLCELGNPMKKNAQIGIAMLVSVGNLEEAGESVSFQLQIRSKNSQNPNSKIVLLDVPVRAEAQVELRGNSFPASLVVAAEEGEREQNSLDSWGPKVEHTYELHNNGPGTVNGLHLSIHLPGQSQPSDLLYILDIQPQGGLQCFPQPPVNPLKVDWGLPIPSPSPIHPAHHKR
T1 sequence (P08514 891-1039 limits assumed): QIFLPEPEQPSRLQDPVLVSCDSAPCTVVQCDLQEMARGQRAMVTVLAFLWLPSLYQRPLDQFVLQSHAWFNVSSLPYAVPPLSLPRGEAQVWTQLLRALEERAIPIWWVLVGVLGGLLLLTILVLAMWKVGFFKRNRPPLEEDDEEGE
T1 sequence (P05106 27-788): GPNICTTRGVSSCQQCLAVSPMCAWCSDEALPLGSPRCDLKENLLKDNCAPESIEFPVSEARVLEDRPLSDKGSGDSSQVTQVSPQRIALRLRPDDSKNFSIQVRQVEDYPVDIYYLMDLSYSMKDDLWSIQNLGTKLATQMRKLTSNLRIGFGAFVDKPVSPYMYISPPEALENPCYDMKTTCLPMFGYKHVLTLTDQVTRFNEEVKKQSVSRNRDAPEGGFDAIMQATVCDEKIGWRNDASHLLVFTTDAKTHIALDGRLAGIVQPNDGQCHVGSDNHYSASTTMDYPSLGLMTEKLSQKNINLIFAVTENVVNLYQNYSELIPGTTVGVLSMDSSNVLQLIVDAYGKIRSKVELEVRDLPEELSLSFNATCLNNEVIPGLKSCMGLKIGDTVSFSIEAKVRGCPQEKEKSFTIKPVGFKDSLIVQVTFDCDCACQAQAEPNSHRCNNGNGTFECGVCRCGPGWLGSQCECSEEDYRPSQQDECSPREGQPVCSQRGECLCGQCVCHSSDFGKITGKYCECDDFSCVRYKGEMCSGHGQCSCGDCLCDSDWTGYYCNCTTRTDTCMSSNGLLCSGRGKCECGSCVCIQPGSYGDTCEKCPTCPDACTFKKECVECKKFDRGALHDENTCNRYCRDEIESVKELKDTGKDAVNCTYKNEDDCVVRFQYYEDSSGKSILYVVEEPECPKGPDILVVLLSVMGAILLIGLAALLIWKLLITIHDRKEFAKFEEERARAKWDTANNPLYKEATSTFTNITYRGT
Procedure: For conducting the target-binding assay, platelet membrane receptor protein gpIIb/IIIa was purified from platelets, and its purity was determined by SDS-PAGE and silver staining. The purified protein gpIIb/IIIa was labeled with biotin as described in the conventional protocol. The 120 collected samples were individually coated onto a 384-well plastic plate. The biotin-labeled protein gpIIb/IIIa was added to the sample-coated plastic plate and was incubated with the coated samples at room temperature for 30 minutes. Each well was then washed with TBST buffer for 3 times, to which the extravidin-conjugated alkaline phosphatase was added, and each well was further incubated for 30 minutes. The previous washing step was repeated and each well was then colored with substrate p-nitrophenyl phosphate. The absorption for each well at a wavelength of 405 nm was determined by an automatic ELISA reader (Dynax). […] The compound “adenosine” obtained from Example 4 was used as a standard for the characterization of each batch preparation of the compound. The compound, when purified, was collected, dried and used to verify its gpIIb/IIIa binding capacity. For conducting the binding assay, the compound was formulated into an aqueous solution, and a serial dilution for forming a final concentration of 0 to 50 μg/ml was made. […]

[4] = biological target: T2, gpIIb/IIIa (binding of fibrinogen) (Homo sapiens, UniProt P05106+P08514); assay: competitive ELISA for inhibition of the binding of fibrinogen to gpIIb/IIIa; settings: samples 5-60 μg/ml; biotin-labeled fibrinogen 1.5 μg/ml; 37° C.; OD value; FIG. 8
T2 construct: The gpIIb/IIIa purified from platelet was coated on flat wells of a plastic 96-well plate; from tissue; host or cells: platelets
T2 sequence (P08514 32-887 limits assumed): as the sequence (P08514 32-887 limits assumed) above
T2 sequence (P08514 891-1039 limits assumed): as the sequence (P08514 891-1039 limits assumed) above
T2 sequence (P05106 27-788): as the sequence (P05106 27-788) above
Procedure: A competitive ELISA assay for analyzing that the binding of fibrinogen to gpIIb/IIIa is inhibited was performed for comparative analysis, where the compound, commercial adenosine (a product from Sigma, Cat. A-9251, Lot. 18H0295) and ReoPro® (abciximab) (10 mg/ml; produced by Eli Lilly for laboratory use only, Lot. 97F03, which is a monoclonal antibody and an antagonist against gpIIb/IIIa) were tested. The gpIIb/IIIa purified from platelet was coated on flat wells of a plastic 96-well plate. Samples of each of the test compounds were prepared in a concentration in a range of 5-60 μg/ml. A solution of biotin-labeled fibrinogen was prepared in a concentration of 1.5 μg/ml. Prior to addition to the wells, each of the samples were individually mixed with an equal volume of the biotinylated fibrinogen. The competitive binding reaction in the plate was performed at 37° C. for 2 hours. After another 2 hours for incubation, strepavidin-conjugated alkaline phosphatase was added to each well of the plate. A substrate solution containing p-nitrophenyl phosphate was then added to each well for coloring by a conventional way. The capability of each tested compound in the inhibition of the binding of fibrinogen to gpIIb/IIIa was measured and recorded as OD value.

[5] = tested on: platelet aggregation; assay: ADP-activated platelet aggregation assay; format: cell-based
Procedure: To assay the platelet aggregation-inhibiting activity of the compound, a regular ADP-activated platelet aggregation assay was performed. The reagents used for conducting the assay were purchased from Sigma. […] The maximal inhibition activity was about 85%, which occurs at the concentration of the compound from 10 to 15 μg/ml blood.

## Nc1ncnc2c1ncn2[C@@H]1O[C@H](CO)[C@@H](O)[C@H]1O [the compound, adenosine]
[1]
  acute toxicity: No signs of overt toxicity
[1]; listed as adenosine
  acute toxicity: no acute toxicity
[2]; 400 μg/rat i.v. 5 minutes before stimulation, at 7, 11, 12, 13, 14, 15, 16, 17 and 19 minutes after electric stimulation, FIG. 7A
  antithrombic activity relative to vehicle treated group, i.v.: significance relative to the vehicle treated group
[2]; 4 mg/rat oral feeding 1 hour prior to stimulation, observed at 14, 15, 16, 17, 18 and 20 minutes, FIG. 7C
  antithrombic activity relative to vehicle treated group, oral: significant antithrombic activity
[3]
  binding to gpIIb/IIIa, % of the maximal binding: 80%
[4]
  inhibition of the binding of fibrinogen to gpIIb/IIIa, compared with ReoPro (abciximab): superior effect
  inhibition of the binding of fibrinogen to gpIIb/IIIa, the compound compared with commercial adenosine: quite similar function
[5]; Platelet, 17.4 μg/ml, occurring from the 14th to 16th minutes, FIG. 6B, read-out: maximal inhibition activity on platelet aggregation (time course)
  inhibition at 17.4 µg/mL: ~85%
[5]; at concentration from 10 to 15 μg/ml blood, FIG. 6A
  maximal inhibition activity on platelet aggregation (dose response): about 85%
